Target: T1, cytosolic phospholipase A2 (cPLA2) (Homo sapiens, UniProt P47712)
T1 construct: gene PLA2G4A
T1 sequence (P47712 1-749): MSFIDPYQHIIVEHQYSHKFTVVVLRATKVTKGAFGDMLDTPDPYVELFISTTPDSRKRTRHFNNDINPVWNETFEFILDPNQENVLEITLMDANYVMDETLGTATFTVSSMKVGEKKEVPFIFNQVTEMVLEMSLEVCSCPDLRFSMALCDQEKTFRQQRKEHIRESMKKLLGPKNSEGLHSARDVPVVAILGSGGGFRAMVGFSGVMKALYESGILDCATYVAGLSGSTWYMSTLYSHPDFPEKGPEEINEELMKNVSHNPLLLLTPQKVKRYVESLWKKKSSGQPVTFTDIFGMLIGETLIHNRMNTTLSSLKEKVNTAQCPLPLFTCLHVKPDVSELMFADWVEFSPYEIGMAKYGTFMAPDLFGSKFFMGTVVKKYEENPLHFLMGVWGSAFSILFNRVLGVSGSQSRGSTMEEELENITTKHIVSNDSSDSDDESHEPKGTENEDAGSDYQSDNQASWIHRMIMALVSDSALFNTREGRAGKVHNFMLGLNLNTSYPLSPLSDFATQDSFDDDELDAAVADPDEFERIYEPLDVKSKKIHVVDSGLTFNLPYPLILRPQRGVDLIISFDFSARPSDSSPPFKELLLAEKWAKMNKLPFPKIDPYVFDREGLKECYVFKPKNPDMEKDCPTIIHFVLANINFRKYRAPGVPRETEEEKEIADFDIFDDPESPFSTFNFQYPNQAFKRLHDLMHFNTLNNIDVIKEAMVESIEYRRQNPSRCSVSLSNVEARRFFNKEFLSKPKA
Test: recombinant cPLA2 enzymatic assay (Cayman cPLA2 assay kit)
Type: biochemical

Q: `C[C@@H]1OC(c2c(O)cc(O)c3c(=O)cc(-c4ccc(O)cc4)oc23)[C@H](O)[C@H](O)[C@H]1O` (stereo partly shown) [8CR, 8-C-rhamnosyl apigenin] was tested. Which IC50 did it give?
A: Its IC50 is 134 µM.

Reference: PMC5618621, “Non-Clinical Studies for Evaluation of 8-C-Rhamnosyl Apigenin Purified from Peperomia obtusifolia against Acute Edema” (International Journal of Molecular Sciences, 2017)
